Laboratory results taken from US20240051952A1, “HMOX1 INDUCERS” (Mitobridge Inc., priority 2019, published 2024).
Entries after “also recorded” stand apart in the source; their conditions may differ.

Key:
[1] = system: HbSS Townes sickle mice; test: Heme-induced vaso-occlusion (stasis) in HbSS Townes sickle mice; type: in vivo, mouse; settings: 1 h after heme infusion
From the text: Townes-SS mice were gavaged once daily with Vehicle or the compound of Example 17 for 8 days. After the last gavage dorsal skin-fold chambers were implanted on the mice and 20-22 flowing venules were selected and mapped in the subcutaneous skin using intravital microscopy. Mice were then infused via the tail vein with Panhematin (3.2 μmols heme/kg body weight). One hour after infusion each venule was re-examined for microvascular stasis (no flow) and data are expressed as % stasis. Stasis values are means+SD. One-Way ANOVA with Dunnett's Multiple comparison to Vehicle ****P<0.0001
Dosing Scheme of HMOX Inducers to HbSS Townes Sickle Mice
HbSS Townes sickle mice were oral gavaged once daily with Vehicle or the compound of Example 17 listed below for 8 days. To minimize experimental inconsistency, fresh formulation was prepared every day and vortexed prior to drawing test article into syringe for each dosing, and dosing was performed by the same individual throughout the day. The last-day dose was administered by oral gavage 4 hours prior to hemin infusion described below. • 1. Vehicle (0.5% w/v Tween 80 in 0.45% w/v methyl cellulose) • 2. the compound of Example 17 (10 mg/kg PO dosing) • 3. the compound of Example 17 (25 mg/kg PO dosing) • 4. the compound of Example 17 (50 mg/kg PO dosing)
Measurement of Vaso-Occlusion (Stasis)
Male and female sickle mice, approximately 12 weeks of age, were weighed before surgery. Animals were anesthetized with a mixture of ketamine (106 mg/kg) and xylazine (7.2 mg/kg) and dorsal skin-fold chambers (DSFCs) were surgically implanted. On the same day anesthetized mice were placed on a special intravital microscopy stage, and 20-22 flowing subcutaneous venules in the DSFC window were selected and mapped. After venule selection and mapping, hemin chloride (2.677 mM; Frontier Scientific), dissolved in sterile saline containing sodium carbonate (11.36 mM; Sigma-Aldrich) and D-sorbitol (9.59 mM; Sigma-Aldrich), was filtered (0.22 μm), diluted 1:10 in sterile saline (267.7 μM hemin, final) and infused into the tail veins of mice (0.012 ml/g, 3.2 μmols heme/kg body weight). All of the selected venules were re-examined at 1 h after hemin infusion, and the number of static (no flow) venules was counted and expressed as percent stasis. Four hours after hemin infusion, mice were euthanized in a CO2 atmosphere and the liver, spleen and kidneys were removed, flash frozen, and stored at −85° C.

[2] = system: Heme Oxygenase 1 (HO1); test: PD study, HMOX1 protein levels in mouse plasma and liver (ELISA); type: in vivo; settings: HMOX1 protein fold induction vs time-matched vehicle, 50 mpk oral
Description: 9-10 week old male C57BL/6 mice were dosed orally with 50 mg/kg of vehicle or compound formulated in 5% w/v tween 80 and 0.5% methyl cellulose. At indicated time points (3 and 6 hours or or 4 and 8 hours post-dosing as shown in the results below), whole blood was collected, animal was sacrificed and liver was collected. Blood samples were transferred to vials containing 4 μL of 10% w/v EDTA, centrifuged at 6000 rpm for 8 in below 10° C. to obtain plasma. Samples were frozen and later processed for HMOX1 protein levels as indicated below:
HMOX 1 Protein Levels: Mouse Liver
Preparation of Homogenization/Lysis Buffer
The homogenization buffer was prepared according Table A.
Immediately prior to use, add DTT (ThermoScientific #R0861) to a final concentration of 5 mM and 100×Halt Protease & Phosphatase Inhibitor Cocktail (ThermoScientific #78440) to a final concentration of 1×.
Preparation of Mouse Liver Samples
Liver samples were crushed by mortar and pestle under freezing conditions. Pulverized tissue was transferred into pre-chilled bead ruptor OMNI tubes (OMNI International, Cat #19-628). 1 mL of homogenization buffer (+DTT and HALT) was added to pulverized tissue and tubes were placed on ice. Samples were loaded and run through bead ruptor at speed 5.64 m/s, for two 20 sec cycles with 10 sec dwell between cycles and samples were immediately returned to ice. All material was transferred to a new chilled 2 mL Eppendorf tube. Samples were centrifuged for 5 minutes at 2,000 rpm at 4° C. Supernatant was transferred to a fresh chilled 1.7 mL Eppendorf tube. Samples were centrifuged for 5 minutes at 2,000 rpm at 4° C. The supernatant, consisting of cytosol and microsomes, was transferred to a fresh chilled 1.7 mL Eppendorf tube. Samples were stored at −80° C. Microsome samples were quantitated using Pierce 660 Assay (ThermoFisher Cat #22660) with pre-diluted BSA standards (ThermoFisher Cat #23208) ranging from 125-2000 μg/mL. Each sample was diluted to 10ng/ul for an ELISA input of 0.5ug in 50ul.
Preparation of Assay Reagents
All assay reagents were provided in the Heme Oxygenase 1 (HO1) Mouse SimpleStep ELISA Kit (Abcam #ab204524). Prior to use, all reagents were equilibrated to room temperature. 1×Wash Buffer PT was prepared by diluting 10×Wash Buffer PT 1:10 with deionized water. Antibody cocktail was prepared by diluting the 10×Capture Antibody and 10×Detector Antibody to 1×in Antibody Diluent 5BI. Mouse heme oxygenase 1 protein standard was reconstituted using 500ul homogenization buffer (Table A), mixed and held at room temperature for 10 minutes prior to dilution. An eight point standard curve was generated by diluting the Stock Standard 1:2 for standard curve ranging from 10,000-156.3 pg/mL.
Heme Oxygenase 1 (HO1) Mouse SimpleStep ELISA
50ul of all samples and standards were added to appropriate wells in duplicate. 50ul of 1×Antibody Cocktail was added to each well. The plate was sealed with provided seal and incubated at room temperature on a plate shaker at 400 rpm. After one hour incubation, the Antibody Cocktail was aspirated and the wells were washed three times with 350ul 1×Wash Buffer PT, aspirating completely between each step. After the last wash was aspirated dry, 100ul TMB Substrate was added to each well and the plate was incubated in the dark at room temperature for 10 minutes on a plate shaker at 400 rpm. After the 10 minute incubation, 100ul of Stop Solution was added to each well. Plate was shaken at 400 rpm for 1 minute to mix. Softmax Pro 7.0.3 was used to read OD at 450 nm as well as for analysis.
Heme Oxygenase 1 Protein Levels in Mouse Plasma
All assay reagents were provided in the Heme Oxygenase 1 (HO1) Mouse SimpleStep ELISA Kit (Abcam #ab204524). 1×Wash Buffer PT was prepared by diluting 10×Wash Buffer PT 1:10 with deionized water. Antibody cocktail was prepared by diluting the 10×Capture Antibody and 10×Detector Antibody to 1×in Antibody Diluent 5BI. […]

Structure (SMILES): Cn1c(Nc2nc3ccccc3o2)nc2cc(C(=O)NCCOCCO)ccc21 [Example 17, 2-(benzo[d]oxazol-2-ylamino)-N-(2-(2-hydroxyethoxy)ethyl)-1-methyl-1H-benzo[d]imidazole-5-carboxamide]
- stasis ([1]; 10 mg/kg PO once daily 8 days): ~17%
- stasis ([1]; 25 mg/kg PO once daily 8 days): ~12%
- stasis ([1]; 50 mg/kg PO once daily 8 days): ~5%
- microvascular stasis vs Vehicle ([1]; 10, 25, 50 mg/kg PO once daily 8 days): significantly reduced; also recorded: dose responsively inhibit microvascular stasis
- Liver Protein (4 h) ([2]; mouse liver, 4 hours (Study 702)): 3.3x*
- Liver Protein (8 h) ([2]; mouse liver, 8 hours (Study 702)): 3.1x*
- Plasma Protein (4 h) ([2]; mouse plasma, 4 hours (Study 702)): 1.7x*
- Plasma Protein (8 h) ([2]; mouse plasma, 8 hours (Study 702)): 1.1x*
